# Source: ChEMBL document CHEMBL1155961, “Novel 4-aryl-pyrido[1,2-c]pyrimidines with dual SSRI and 5-HT1A activity: part 2” (Eur J Med Chem, 2009)
# The source made the active and inactive calls. The calls are words filed in the database; no cut-off is given here.
# How the values were obtained:
# [1] = molecular target: T1, 5-hydroxytryptamine receptor 1A (Rattus norvegicus, UniProt P19327); experiment: Displacement of [3H]8-OH-DPAT from 5-HT1A receptor in rat hippocampus; format: tissue-based
# T1 sequence (P19327 whole entry): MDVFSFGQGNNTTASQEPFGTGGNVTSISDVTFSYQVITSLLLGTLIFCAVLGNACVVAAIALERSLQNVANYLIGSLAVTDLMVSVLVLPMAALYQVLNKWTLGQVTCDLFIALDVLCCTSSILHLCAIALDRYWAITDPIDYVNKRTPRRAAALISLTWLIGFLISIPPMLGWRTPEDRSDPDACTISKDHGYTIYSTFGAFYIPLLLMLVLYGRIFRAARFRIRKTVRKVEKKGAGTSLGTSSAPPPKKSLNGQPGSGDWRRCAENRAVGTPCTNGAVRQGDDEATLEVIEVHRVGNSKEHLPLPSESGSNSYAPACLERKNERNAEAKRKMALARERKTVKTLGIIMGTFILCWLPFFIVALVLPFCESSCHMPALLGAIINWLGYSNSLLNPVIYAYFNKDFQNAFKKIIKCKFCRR
# Mus musculus [2] = experiment: Effect on hypothermia in Swiss albino mouse assessed as change in rectal body temperature at 5 mg/kg, ip after 60 mins by inducible hypothermia test; format: functional, organism-based; set-up: dose 5 mg/kg
# Mus musculus [3] = experiment: Effect on hypothermia in Swiss albino mouse assessed as change in rectal body temperature at 5 mg/kg, ip after 120 mins by inducible hypothermia test; format: functional, organism-based; set-up: dose 5 mg/kg
# Mus musculus [4] = experiment: Antidepressant activity in Swiss albino mouse assessed as reduction of immobility time at 5 mg/kg, ip administered 30 mins before test measured 6 mins test session after 2 mins habituation period by forced swimming test; format: functional, organism-based; set-up: dose 5 mg/kg
# Mus musculus [5] = experiment: Effect on spontaneous locomotor activity in Swiss albino mouse assessed as number of light-beam crossings in actiometers pretreated for 30 mins at 10 mg/kg, ip measured during 6 mins post drug dose; format: functional; details: route intraperitoneal
# Mus musculus [6] = experiment: Effect on spontaneous locomotor activity in Swiss albino mouse assessed as number of light-beam crossings in actiometers pretreated for 30 mins at 10 mg/kg, ip measured during 30 mins post drug dose; format: functional; details: route intraperitoneal
# Mus musculus [7] = experiment: Effect on hypothermia in Swiss albino mouse assessed as change in rectal body temperature at 5 mg/kg, ip after 90 mins by inducible hypothermia test; format: functional, organism-based; set-up: dose 5 mg/kg
# Mus musculus [8] = experiment: Effect on hypothermia in Swiss albino mouse assessed as change in rectal body temperature at 10 mg/kg, ip after 60 mins by inducible hypothermia test; format: functional, organism-based; set-up: dose 10 mg/kg
# Mus musculus [9] = experiment: Effect on hypothermia in Swiss albino mouse assessed as change in rectal body temperature at 10 mg/kg, ip after 30 mins by inducible hypothermia test; format: functional, organism-based; set-up: dose 10 mg/kg
# Mus musculus [10] = experiment: Antidepressant activity in Swiss albino mouse assessed as reduction of immobility time at 10 mg/kg, ip administered 30 mins before test measured 6 mins test session after 2 mins habituation period by forced swimming test; format: functional; set-up: scale not given: the % may be the effect or the level left
# [11] = molecular target: Sodium-dependent serotonin transporter (Rattus norvegicus, UniProt P31652); experiment: Displacement of [3H]citalopram from SERT in rat cerebral cortex by liquid scintillation counting; format: tissue-based
# Chain of Sodium-dependent serotonin transporter (P31652 whole entry): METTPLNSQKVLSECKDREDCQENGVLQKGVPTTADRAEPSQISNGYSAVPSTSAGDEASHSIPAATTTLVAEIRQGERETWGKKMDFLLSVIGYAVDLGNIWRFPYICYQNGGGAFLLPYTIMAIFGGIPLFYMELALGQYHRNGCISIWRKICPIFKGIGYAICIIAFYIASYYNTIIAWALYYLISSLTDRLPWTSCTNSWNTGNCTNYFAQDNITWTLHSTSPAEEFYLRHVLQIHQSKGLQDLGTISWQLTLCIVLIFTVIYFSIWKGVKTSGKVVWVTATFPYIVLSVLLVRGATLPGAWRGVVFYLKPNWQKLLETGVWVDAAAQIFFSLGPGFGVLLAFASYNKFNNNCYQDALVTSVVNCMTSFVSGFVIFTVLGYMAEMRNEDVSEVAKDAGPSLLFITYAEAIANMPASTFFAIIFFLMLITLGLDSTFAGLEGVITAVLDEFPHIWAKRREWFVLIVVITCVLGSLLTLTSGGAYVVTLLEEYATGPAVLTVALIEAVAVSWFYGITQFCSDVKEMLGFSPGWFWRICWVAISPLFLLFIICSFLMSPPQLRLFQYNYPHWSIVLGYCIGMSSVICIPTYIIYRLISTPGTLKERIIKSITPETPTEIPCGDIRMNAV
# Mus musculus [12] = experiment: Effect on hypothermia in Swiss albino mouse assessed as change in rectal body temperature at 5 mg/kg, ip after 30 mins by inducible hypothermia test; format: functional, organism-based; set-up: dose 5 mg/kg
# Mus musculus [13] = experiment: Effect on hypothermia in Swiss albino mouse assessed as change in rectal body temperature at 10 mg/kg, ip dosed 15 mins after 0.1 mg/kg, sc WAY 100635 challenge measured after 30 mins by inducible hypothermia test; format: functional, organism-based
# Mus musculus [14] = experiment: Effect on hypothermia in Swiss albino mouse assessed as change in rectal body temperature at 10 mg/kg, ip after 120 mins by inducible hypothermia test; format: functional, organism-based; set-up: dose 10 mg/kg
# Mus musculus [15] = experiment: Effect on hypothermia in Swiss albino mouse assessed as change in rectal body temperature at 10 mg/kg, ip dosed 15 mins after 0.1 mg/kg, sc WAY 100635 challenge measured after 60 mins by inducible hypothermia test; format: functional, organism-based
# Mus musculus [16] = experiment: Effect on hypothermia in Swiss albino mouse assessed as change in rectal body temperature at 10 mg/kg, ip after 90 mins by inducible hypothermia test; format: functional, organism-based; set-up: dose 10 mg/kg
# Mus musculus [17] = species: Mus musculus; details: Swiss albino, 1.25 mg/kg
# Description: Effect on hypothermia in Swiss albino mouse assessed as change in rectal body temperature at 1.25 mg/kg, ip after 90 mins by inducible hypothermia test
# Mus musculus [18] = species: Mus musculus; details: Swiss albino, 5 mg/kg
# Description: Effect on hypothermia in Swiss albino mouse assessed as change in rectal body temperature at 5 mg/kg, ip dosed 15 mins after 0.1 mg/kg, sc WAY 100635 challenge measured after 60 mins by inducible hypothermia test
# Mus musculus [19] = species: Mus musculus; details: Swiss albino, 2.5 mg/kg
# Description: Effect on hypothermia in Swiss albino mouse assessed as change in rectal body temperature at 2.5 mg/kg, ip after 60 mins by inducible hypothermia test
# Mus musculus [20] = species: Mus musculus; details: Swiss albino, 1.25 mg/kg; remark: listed apart in the source
# Description: Effect on hypothermia in Swiss albino mouse assessed as change in rectal body temperature at 1.25 mg/kg, ip after 120 mins by inducible hypothermia test
# Mus musculus [21] = species: Mus musculus; details: Swiss albino, 5 mg/kg; remark: listed apart in the source
# Description: Effect on hypothermia in Swiss albino mouse assessed as change in rectal body temperature at 5 mg/kg, ip dosed 15 mins after 0.1 mg/kg, sc WAY 100635 challenge measured after 30 mins by inducible hypothermia test
# Mus musculus [22] = species: Mus musculus; details: Swiss albino, 1.25 mg/kg; remark: listed apart in the source
# Description: Effect on hypothermia in Swiss albino mouse assessed as change in rectal body temperature at 1.25 mg/kg, ip after 30 mins by inducible hypothermia test
# Mus musculus [23] = species: Mus musculus; details: Swiss albino, 2.5 mg/kg; remark: listed apart in the source
# Description: Effect on hypothermia in Swiss albino mouse assessed as change in rectal body temperature at 2.5 mg/kg, ip after 120 mins by inducible hypothermia test
# Mus musculus [24] = species: Mus musculus; details: Swiss albino, 2.5 mg/kg; remark: listed apart in the source
# Description: Effect on hypothermia in Swiss albino mouse assessed as change in rectal body temperature at 2.5 mg/kg, ip after 90 mins by inducible hypothermia test
# Mus musculus [25] = species: Mus musculus; details: Swiss albino, 2.5 mg/kg; remark: listed apart in the source
# Description: Effect on hypothermia in Swiss albino mouse assessed as change in rectal body temperature at 2.5 mg/kg, ip after 30 mins by inducible hypothermia test
# Mus musculus [26] = species: Mus musculus; details: Swiss albino, 1.25 mg/kg; remark: listed apart in the source
# Description: Effect on hypothermia in Swiss albino mouse assessed as change in rectal body temperature at 1.25 mg/kg, ip after 60 mins by inducible hypothermia test
# Mus musculus [27] = experiment: Antidepressant activity in Swiss albino mouse assessed as reduction of immobility time at 20 mg/kg, ip administered 30 mins before test measured 6 mins test session after 2 mins habituation period by forced swimming test; format: functional
# Mus musculus [28] = experiment: Effect on hypothermia in Swiss albino mouse assessed as change in rectal body temperature at 20 mg/kg, ip after 90 mins by inducible hypothermia test; format: functional, organism-based; set-up: dose 20 mg/kg
# Mus musculus [29] = experiment: Effect on hypothermia in Swiss albino mouse assessed as change in rectal body temperature at 20 mg/kg, ip dosed 15 mins after 0.1 mg/kg, sc WAY 100635 challenge measured after 30 mins by inducible hypothermia test; format: functional, organism-based
# Mus musculus [30] = experiment: Effect on hypothermia in Swiss albino mouse assessed as change in rectal body temperature at 20 mg/kg, ip dosed 15 mins after 0.1 mg/kg, sc WAY 100635 challenge measured after 60 mins by inducible hypothermia test; format: functional, organism-based
# Mus musculus [31] = experiment: Effect on hypothermia in Swiss albino mouse assessed as change in rectal body temperature at 20 mg/kg, ip after 30 mins by inducible hypothermia test; format: functional, organism-based; set-up: dose 20 mg/kg
# Mus musculus [32] = experiment: Effect on hypothermia in Swiss albino mouse assessed as change in rectal body temperature at 20 mg/kg, ip after 60 mins by inducible hypothermia test; format: functional, organism-based; set-up: dose 20 mg/kg
# Mus musculus [33] = experiment: Effect on hypothermia in Swiss albino mouse assessed as change in rectal body temperature at 20 mg/kg, ip after 120 mins by inducible hypothermia test; format: functional, organism-based; set-up: dose 20 mg/kg
# Mus musculus [34] = experiment: Antidepressant activity in Swiss albino mouse assessed as reduction of immobility time at 1 mg/kg, sc administered 30 mins before test measured 6 mins test session after 2 mins habituation period by forced swimming test; format: functional; set-up: scale not given: the % may be the effect or the level left; details: route subcutaneous
# Mus musculus [35] = experiment: Antidepressant activity in Swiss albino mouse assessed as reduction of immobility time at 2 mg/kg, sc administered 30 mins before test measured 6 mins test session after 2 mins habituation period by forced swimming test; format: functional; set-up: scale not given: the % may be the effect or the level left; details: route subcutaneous
SMILES,Ki [1] [nM],deltaT (Mus musculus [2]) [°C],deltaT (Mus musculus [3]) [°C],deltaT (Mus musculus [7]) [°C],deltaT (Mus musculus [8]) [°C],deltaT (Mus musculus [9]) [°C],Ki [11] [nM],deltaT (Mus musculus [12]) [°C],deltaT (Mus musculus [14]) [°C],deltaT (Mus musculus [16]) [°C],other results
Cc1ccc(-c2c3n(c(=O)n(CCCCN4CCC(c5c[nH]c6ccccc56)CC4)c2=O)CCCC3)cc1,48.3,-0.6,-0.2,-0.3,-0.5,-1,76.7,-0.6,-0.2,-0.3,Activity (Mus musculus [4]): inactive; Activity (Mus musculus [5]): 114; Activity (Mus musculus [6]): 221; Activity (Mus musculus [10]; route intraperitoneal): 34%; deltaT (Mus musculus [13]): -0.6 °C; deltaT (Mus musculus [15]): -0.6 °C
O=c1c(-c2ccccc2F)c2n(c(=O)n1CCCCN1CCC(c3c[nH]c4ccccc34)CC1)CCCC2,27.8,-0.2,-0.1,-0.2,-1,-1.2,102,-0.3,-0.5,-0.8,Activity (Mus musculus [4]): inactive; Activity (Mus musculus [5]): 217; Activity (Mus musculus [6]): 333; Activity (Mus musculus [10]; route intraperitoneal): 27%; deltaT (Mus musculus [13]): -0.6 °C; deltaT (Mus musculus [15]): -0.4 °C
Cc1[nH]c2ccccc2c1C1CCN(CCCCn2c(=O)c(-c3ccccc3)c3n(c2=O)CCCC3)CC1,1400,,,,,,274,,,,
Cc1ccc(-c2c3n(c(=O)n(CCCCN4CCC(c5c(C)[nH]c6ccccc56)CC4)c2=O)CCCC3)cc1,1500,,,,,,115,,,,
COc1ccc(-c2c3n(c(=O)n(CCCCN4CCC(c5c[nH]c6ccc(OC)cc56)CC4)c2=O)CCCC3)cc1,10.4,-0.5,-0.1,-0.3,,,83.5,-1.1,,,deltaT (Mus musculus [17]): -0.4 °C; deltaT (Mus musculus [18]): -0.9 °C; deltaT (Mus musculus [19]): -0.6 °C; deltaT (Mus musculus [20]): -0.2 °C; deltaT (Mus musculus [21]): -1.2 °C; deltaT (Mus musculus [22]): -0.3 °C; deltaT (Mus musculus [23]): -0.5 °C; deltaT (Mus musculus [24]): -0.6 °C; deltaT (Mus musculus [25]): -0.8 °C; deltaT (Mus musculus [26]): -0.4 °C
COc1ccc2[nH]cc(C3CCN(CCCCn4c(=O)c(-c5ccc(C)cc5)c5n(c4=O)CCCC5)CC3)c2c1,23,-0.2,-0.1,-0.1,-0.4,-0.6,136,-0.3,-0.1,-0.2,Activity (Mus musculus [27]): inactive; deltaT (Mus musculus [28]): -0.8 °C; deltaT (Mus musculus [29]): -0.4 °C; Activity (Mus musculus [10]): inactive; deltaT (Mus musculus [30]): -0.4 °C; deltaT (Mus musculus [31]): -1.3 °C; deltaT (Mus musculus [32]): -1.3 °C; deltaT (Mus musculus [33]): -0.7 °C
CCCN(CCC)C1CCc2cccc(O)c2C1 (stereo not drawn) [8-OH-DPAT],,,,,,,,,,,Activity (Mus musculus [34]): 45%; Activity (Mus musculus [35]): 57%
Cc1[nH]c2ccccc2c1C1CCN(CCCCn2c(=O)c(-c3ccccc3Cl)c3n(c2=O)CCCC3)CC1,2100,,,,,,480,,,,
COc1ccc2[nH]cc(C3CCN(CCCCn4c(=O)c(-c5ccc(Cl)cc5)c5n(c4=O)CCCC5)CC3)c2c1,14.6,,,,,,222,,,,
O=c1c(-c2ccccc2Cl)c2n(c(=O)n1CCCCN1CCC(c3c[nH]c4ccccc34)CC1)CCCC2,36.2,,,,,,101,,,,
